Results: ChEMBL document CHEMBL1629619, “qnrD, a novel gene conferring transferable quinolone resistance in Salmonella enterica serovar Kentucky and Bovismorbificans strains of human origin” (2009)
≈ marks a conversion by molar mass, not a printed value. Calls of active or inactive are those of the source. The rule behind the calls is not given here.

Assays:
Salmonella enterica [1] = test: Antimicrobial activity against Salmonella enterica HN-GSS2006-142 by broth microdilution assay; format: functional, organism-based
Escherichia coli [2] = test: Antimicrobial activity against Escherichia coli DH10B harboring pBR322 with Salmonella enterica HN-GSS-2007-057 qnrD gene by broth microdilution assay; format: functional; conditions: K-12 DH10B
Escherichia coli [3] = test: Antimicrobial activity against Escherichia coli DH10B harboring pBR322 with Salmonella enterica HN-GSS-2007-057 qnrA1 gene by broth microdilution assay; format: functional; conditions: K-12 DH10B
Salmonella enterica [4] = test: Antimicrobial activity against Salmonella enterica HN-GSS-2007-057 by broth microdilution assay; format: functional, organism-based
Salmonella enterica [5] = test: Antimicrobial activity against Salmonella enterica HN-GSS2007-0.033 by broth microdilution assay; format: functional, organism-based
Salmonella enterica [6] = test: Antimicrobial activity against Salmonella enterica HN-GSS2007-0.056 by broth microdilution assay; format: functional, organism-based
Escherichia coli [7] = test: Antimicrobial activity against Escherichia coli DH10B harboring p2007057 by broth microdilution assay; format: functional; conditions: K-12 DH10B
Escherichia coli [8] = test: Antimicrobial activity against Escherichia coli DH10B harboring pBR322 by broth microdilution assay; format: functional; conditions: K-12 DH10B
[9] = Antimicrobial activity against Salmonella enterica serovar Kentucky by broth microdilution assay
Escherichia coli [10] = test: Antimicrobial activity against Escherichia coli DH10B by broth microdilution assay; format: functional; conditions: K-12 DH10B
Escherichia coli [11] = test: Antimicrobial activity against Escherichia coli DH10B harboring pBR322 with Salmonella enterica HN-GSS-2007-057 qnrS1 gene by broth microdilution assay; format: functional; conditions: K-12 DH10B
[12] = Antimicrobial activity against Salmonella enterica serovar Bovismorbificans by broth microdilution assay; format: functional, Salmonella enterica subsp. enterica serovar Bovismorbificans

Compound	Activity (Salmonella enterica [1])	MIC (Escherichia coli [2]) [µg/mL]	MIC (Escherichia coli [3]) [µg/mL]	Activity (Salmonella enterica [4])	Activity (Salmonella enterica [5])	Activity (Salmonella enterica [6])	MIC (Escherichia coli [7]) [µg/mL]	MIC (Escherichia coli [8]) [µg/mL]	MIC [9] [µg/mL]	MIC (Escherichia coli [10]) [µg/mL]	MIC (Escherichia coli [11]) [µg/mL]	MIC [12] [µg/mL]
CC1COc2c(N3CCN(C)CC3)c(F)cc3c(=O)c(C(=O)O)cn1c23 (stereo unspecified) [OFLOXACIN]	Active	0.125 (≈ 0.346 µM)	0.25 (≈ 0.692 µM)	Active	Active	Active	0.25 (≈ 0.692 µM)	0.032 (≈ 0.0886 µM)				
O=C(O)c1cn(C2CC2)c2cc(N3CCNCC3)c(F)cc2c1=O [CIPROFLOXACIN]									0.125 (≈ 0.377 µM)			
CCn1cc(C(=O)O)c(=O)c2ccc(C)nc21 [NALIDIXIC ACID]		4 (≈ 17.2 µM)	8 (≈ 34.4 µM)				8 (≈ 34.4 µM)	2 (≈ 8.61 µM)		2 (≈ 8.61 µM)	8 (≈ 34.4 µM)	8 (≈ 34.4 µM)
CCn1cc(C(=O)O)c(=O)c2cc(F)c(N3CCNCC3)cc21 [NORFLOXACIN]	Active	0.06 (≈ 0.188 µM)	0.25 (≈ 0.783 µM)	Active	Active	Active	0.125 (≈ 0.391 µM)	0.015 (≈ 0.047 µM)		0.015 (≈ 0.047 µM)	0.5 (≈ 1.57 µM)	
